Molecules are shown by their SMILES. pIC50: −log10 of the molar value. Read-outs that look alike come from different tables or passages of the source.

Data set [1] relates to phosphorylated Rb (pRb 807/811) in MCF7PDRC15-1 cells. The data set is described as follows: Western blot pRb, palbociclib-resistant MCF7. The format is cell-based, human. The procedure: Cells were harvested, counted and then plated at 300,000 cells/well in 60 mm tissue culture treated dishes. […] Lysates were clarified by centrifugation at 12,000×g for 15 min at 4° C. and supernatants were transferred to clean tubes. A BCA assay was performed to determine the protein concentration of each lysate. A total of 25 μg of protein was mixed with sample buffer and reducing agent before being run on a 4-12% SDS-PAGE. Protein was transferred to a nitrocellulose membrane and blocked with LI-COR blocking buffer for 1 hour. Membranes were incubated overnight in primary antibody at 4° C. Following 3 washes with TBST, membranes were incubated for 60 minutes in LI-COR secondary antibodies. Following 3 washes in TBST, and one TBS wash, membranes were scanned using a LI-COR OdysseyCLx. Image studio was used for image analysis.
A general note: A western blot detects proteins with antibodies after separation by electrophoresis.

For data set [2], the system named is OVCAR-3 cells. Nature of the data set: CellTiter Glo cell proliferation assay. The format is cell-based, human. The conditions noted are these: six days. The method, then: Plates were returned to the incubator for six additional days. On day six post dosing, plates were removed and treated with CellTiter Glo reagent following manufacturer's specifications. Plates were incubated 45 minutes at room temperature and run on Biotek luminometer with 1 sec/well detection. Results were converted to Microsoft Excel and transferred to Graphpad Prism for analysis. […] These cell types are distinguished by either gained of cyclin E1 expression or activation (Kuramochi) or intrinsic amplification of cyclin E1 (OVCAR-3, COV318).
In a similar manner, OVCAR-3 cells were grown in RPMI-1640, 1× Glutamax, 10% FBS and 1×ITS at 37° C., 5% CO2. Cells were plated at 500 cells per well in white wall/clear bottom plates and incubated overnight. […] Plates returned to incubator for six additional days. On day six post dosing, plates were removed and treated with CellTiter Glo reagent following manufacturer's specifications. Plates were incubated 45 minutes at room temperature and run on Biotek luminometer with 1 sec/well detection. Results were converted to Microsoft Excel and transferred to GraphPad Prism for analysis.
For orientation: ATP-based viability assays read luminescence as a measure of living cells.

The subject of data set [3] is H69 (NCIH69) cells. The data set is described as follows: CellTiter Glo cell proliferation assay (single agent and chemotherapy combination). The format is cell-based, human. The method, then: (§1) Plates returned to incubator for six additional days. On day six post dosing, plates were removed and treated with CellTiter Glo reagent following manufacturer's specifications. Plates incubated 45 minutes at room temperature and run on a Biotek luminometer with 1 sec/well detection. Results were converted to Microsoft Excel and transferred to GraphPad Prism for analysis.
(§2) Dose curves ranged from 300 pM to 10 μM in triplicate and treatments lasted for 6 days. Plates were removed from incubator at each specified timepoint and treated with CellTiter-Glo (Promega, Inc) following manufacturer specifications. Plates were then read on CLARIOstar luminometer with 1 sec/well integration.
(§3) Dose curves ranged from 300 pM to 10 μM in triplicate and treatments lasted for 6 days. Plates were removed from incubator at each specified timepoint and treated with CellTiter-Glo (Promega, Inc) following manufacturer specifications. Plates were then read on CLARIOstar luminometer with 1 sec/well integration. Results were converted to Microsoft Excel and transferred to GraphPad Prism for Analysis.

The test system of data set [4] is SHP77 cells. Described as above. The format is cell-based, human. The method, then: as §1, §2, §3
In data set [5] the test system is CCNE1, CCNE2, DNA damage markers in H526 cells. The data set is described as follows: Western blot cell cycle and DNA damage proteins. The format is cell-based, human. The conditions noted are these: 24 hours. The procedure: (§4) The H69 and H526 human lung carcinoma cell lines were grown in RPMI-1640/1× Glutamax/10% fetal bovine serum while the Hs68 Normal foreskin fibroblast cell line was grown in DMEM-high glucose/1× Glutamax/10% fetal bovine serum. […] Cells were collected by washing each well twice with cold PBS, then scraping cells in the presence of 150 μL cold RIPA with protease and phosphatase inhibitors. Lysates were clarified by centrifugation at 14,000×g for 10 min at 4° C. and supernatants transferred to clean tubes. A BCA assay was performed to determine the protein concentration of each lysate. A total of 30 μg of protein was mixed with sample buffer and reducing agent before being run on a 4-12% SDS-PAGE. Protein was transferred to a nitrocellulose membrane and blocked with LI-COR blocking buffer for 1 hour. Membranes were incubated overnight in primary antibody at 4° C. Following 3 washes with TBS-T, membranes were incubated for 45 minutes in LI-COR secondary antibodies. Following 2 washes in TBS-T, and one TBS wash, membranes were scanned using a LI-COR OdysseyCLx. Image studio was used for image analysis.

In data set [6] the test system is CCNE1, CCNE2, DNA damage markers in H69 cells. Nature of the data set: Western blot cell cycle and DNA damage proteins. The format is cell-based, human. The conditions noted are these: 24 hours. The method, then: as §4
For data set [7], the system named is HCC-1569 cell loaded Hollow Fibers. The data set is described as follows: Mouse hollow fiber assay (CellTiter Glo). The format is in vivo, mice. The note with it: 75, 100, 150 mg/kg twice daily, Day 16. The method, then: The mouse hollow fiber assay was conducted using three tumor cell lines, OVCAR-3 (ovarian), MKN-1 (gastric), and HCC-1569 (breast), 1e7 OVCAR-3, 5e6 MKN-1, and 1e7 HCC-1569 cells were loaded into Hollow Fibers, placed in cell culture dishes containing RPMI-1640 with 20% FCS and 1% penicillin/streptomycin, and were equilibrated in an incubator at 37 C, 5% CO2 overnight. On Day 0, three fibers were implanted in two different compartments: subcutaneous and intraperitoneal of twenty-four female NMRI nude mice ages 4-5 weeks. […] Female NMRI nude mice were implanted both subcutaneously and intraperitoneally with HCC-1569, MKN1, and OVCAR3 tumor cell-loaded Hollow Fibers on Day 0. The number of animals alive on Day 0 (implantation) and on Day 16 (necropsy) in each group is shown in parentheses in the legend.
HCC-1569 cell loaded Hollow Fibers were implanted both subcutaneously and intraperitoneally into female NMRI nude mice on Day 0. Hollow Fibers were collected during necropsy on Day 16 and analyzed using a CellTiter Glo® assay.

A short description of data set [8]: Nonclinical pharmacokinetics (IV and PO). The note with it: in vivo. The procedure: Nonclinical PK studies were conducted for single dose of Compound I in rats, mice, and dogs, and for repeated doses of Compound I in rats and dogs. […] The relationship between dose level and systemic exposure was generally similar in male and female animals.
A short description of data set [9]: Bidirectional permeability (A-B, B-A Papp). The format is in vitro ADME.
Where [10] appears, read: 100 nM Compound I with camptothecin dose curve, 6 days.

As for `NS(=O)(=O)c1ccc(Nc2ncc3cc4n(c3n2)C2(CCCCC2)C(=O)NN4)cc1` [Compound I], the “phosphorylated Rb (pRb) levels” value in data set [1] (30-1000 nM, 24 hours, no palbociclib) is given as “little reduction in phosphorylated Rb (pRb) levels”; in data set [1] (co-administered with 1 μM palbociclib) it was “substantial reduction in pRb levels”. Further, the “cell viability compared with palbociclib” value in data set [2] (CCNE1 amplified) is on record as “potently decreases cell viability”. In data set [2] (Homo sapiens, OVCAR-3, 144 h), the pIC50 was 7.31. The “cellular proliferation IC50, combined with camptothecin, versus single agents” value was “lower IC50 value” in data set [3] (setting [10]) and “comparable” in [4] (setting [10]). Also, the “inhibition compared with palbociclib” value in [3] (six days) and in data set [4] (six days) was “low nanomolar concentrations” throughout. Besides, the DNA damage markers entry in [5] and in [6] was “No overt DNA damage marker changes” in each case. Moreover, the “cyclin E (CCNE1, CCNE2) levels” value is recorded as “increase of cyclin E (CCNE1, CCNE2) amplification” in [5] and “increase of cyclin E (CCNE1, CCNE2) amplification” in data set [6]. For the same compound, the “tumor bioluminescence signal (CellTiter Glo) of Hollow Fibers” value in data set [7] was “significant reduction”. This compound gave a half-life in [8] (dog, dogs) of at most 360 min. The Tmax in data set [8] (dog, iv, dogs, read-out: Tmax after IV dosing) is at most 15 min; in data set [8] (dog, po, dogs, read-out: Tmax after PO dosing) it was 72 to 102 min; in data set [8] (mouse, iv, mice, read-out: Tmax after IV dosing) it was at most 15 min; in data set [8] (mouse, po, mice, read-out: Tmax after PO dosing), 15 to 240 min; in [8] (rat, iv, rats, read-out: Tmax after IV dosing) it was at most 15 min; in [8] (rat, po, rats, read-out: Tmax after PO dosing), 15 to 30 min. Further, the permeability result in data set [9] is reported as “moderate permeability”. In addition, in data set [9] (not told), the Papp A→B was 3.28 to 6.67 ×10⁻⁶ cm/s. In [9] (not told), this compound had a Papp B→A of 42 to 68.3 ×10⁻⁶ cm/s.

The term pIC50 denotes the IC50 on a negative log10 scale, so that one unit is a factor of ten. Low values mean a high IC50, high ones a low IC50. As usually defined, the half-life is the time needed for the level to fall by half in the phase considered. Read a high half-life as slow loss. For orientation: Tmax means the time from dosing to the highest level. One may read the Papp A→B as the apparent permeability from the apical to the basolateral side of a cell layer. A lower Papp A→B goes with slow passage. A word on the Papp B→A: it is how fast a substance crosses the layer from the basolateral side.

Values taken from patent US20250199015A1, “CYCLIN-DEPENDENT KINASE 2 INHIBITORS FOR MEDICAL TREATMENT” (INCYCLIX BIO, LLC, priority 2022, published 2025).
